One test addresses Acetylcholinesterase (Homo sapiens, UniProt P22303). As to the kind of experiment: Inhibition of human AChE using acetylthiocholine iodide as substrate treated 5 mins before substrate addition measured up to 4 mins by Ellman's method.
In another test the target is Cholinesterase (Homo sapiens, UniProt P06276).

pIC50: −log10 of the molar value. A value given as a limit tells only on which side of the number the result lay.

Sequence of Cholinesterase (P06276 whole entry): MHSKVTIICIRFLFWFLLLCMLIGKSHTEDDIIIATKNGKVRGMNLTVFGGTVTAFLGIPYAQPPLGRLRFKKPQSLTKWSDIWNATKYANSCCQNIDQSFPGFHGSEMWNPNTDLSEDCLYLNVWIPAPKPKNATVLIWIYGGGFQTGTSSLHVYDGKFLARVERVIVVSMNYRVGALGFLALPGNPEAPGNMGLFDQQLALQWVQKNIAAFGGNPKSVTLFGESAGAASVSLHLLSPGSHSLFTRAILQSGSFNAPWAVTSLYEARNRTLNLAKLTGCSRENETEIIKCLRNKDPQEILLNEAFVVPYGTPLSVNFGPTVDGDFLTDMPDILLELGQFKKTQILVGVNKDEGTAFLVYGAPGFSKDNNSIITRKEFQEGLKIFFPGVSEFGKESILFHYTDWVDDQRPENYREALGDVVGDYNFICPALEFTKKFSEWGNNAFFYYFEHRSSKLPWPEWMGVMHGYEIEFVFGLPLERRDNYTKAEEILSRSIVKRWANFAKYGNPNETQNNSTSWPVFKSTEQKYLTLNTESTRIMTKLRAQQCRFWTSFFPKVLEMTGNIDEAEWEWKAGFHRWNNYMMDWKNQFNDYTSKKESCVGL
Sequence of Acetylcholinesterase (P22303 whole entry): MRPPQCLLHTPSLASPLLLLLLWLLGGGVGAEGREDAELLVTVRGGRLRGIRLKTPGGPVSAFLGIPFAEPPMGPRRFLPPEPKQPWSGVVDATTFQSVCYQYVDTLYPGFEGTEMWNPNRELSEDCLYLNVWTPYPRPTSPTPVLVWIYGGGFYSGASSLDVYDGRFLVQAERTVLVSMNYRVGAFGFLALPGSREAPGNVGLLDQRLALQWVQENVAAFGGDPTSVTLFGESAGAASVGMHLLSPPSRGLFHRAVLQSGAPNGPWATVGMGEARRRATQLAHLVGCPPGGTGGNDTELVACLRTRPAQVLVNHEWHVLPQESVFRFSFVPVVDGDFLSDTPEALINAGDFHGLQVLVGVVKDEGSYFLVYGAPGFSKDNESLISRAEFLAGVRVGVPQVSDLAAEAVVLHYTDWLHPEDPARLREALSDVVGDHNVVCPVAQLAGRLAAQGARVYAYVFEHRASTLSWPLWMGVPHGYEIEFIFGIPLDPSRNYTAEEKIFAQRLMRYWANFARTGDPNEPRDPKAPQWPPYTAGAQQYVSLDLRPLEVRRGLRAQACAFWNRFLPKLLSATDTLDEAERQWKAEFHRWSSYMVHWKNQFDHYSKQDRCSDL

Broadly, the pIC50 is the negative decadic logarithm of the IC50, by convention in mol/L. Read a low pIC50 as a large IC50. `CC(=O)CCCCn1c(=O)c2c(ncn2C)n(C)c1=O` [PENTOXIFYLLINE]: the figures for the pIC50 against Acetylcholinesterase and on Cholinesterase were 5.18 and < 4.30, respectively.
Consider `CCCn1cnc2c1c(=O)n(CCCCC(C)=O)c(=O)n2C` [PROPENTOFYLLINE], for which the figures for the negative logarithm of the IC50 (pIC50) at Acetylcholinesterase and against Cholinesterase were 5.19 and < 4.30, respectively.
For the molecule `O=c1[nH]c(=O)c2[nH]cnc2[nH]1` [XANTHINE], the pIC50 on Acetylcholinesterase is 5.05; against Cholinesterase, < 4.30.

The values are drawn from ChEMBL document CHEMBL2401650, “Selective inhibition of human acetylcholinesterase by xanthine derivatives: in vitro inhibition and molecular modeling investigations” (Bioorg Med Chem Lett, 2013).
